{"source": "patent US20040132663A1", "about": "(University of Utah Research Foundation, priority 2000, published 2004)", "origin": "cited, not measured here", "settings": "in vivo", "data": [{"substance": "contulakin-G", "values": [{"measurement": "potency in inhibiting pain relative to neurotensin", "value": "significantly more potent than neurotensin"}]}]}
